# From US6303621A, “Method for treating cancers using a diiodo thyronine analogue having no significant hormonal activity and a vinca alkaloid and compositions comprising the same” (priority 1999, dated 2001)
# “Also recorded” adds a separate entry of the source.
# How the values were obtained:
# [1] = test system: MDA-MB-231 human mammary cancer cells; assay: Colony formation (cell killing); format: cell-based
# Method: (§1) c. MDA-MB-231 human mammary cancer cells were cultured and treated as reported previously by Mendeleyev et al., International Journal of Oncology 10:689-695 (1997) and Zhen et al., International Journal of Oncology 10:689-695 (1997). For the assay of cell growth kinetics cells, were seeded into 2cm^2 wells (24-well plates) at a density of 8×10^3 /cm^2 at the time of seeding. Vincristine (or vinblastine) and DIME (or DIPE) were added from DMSO dilutions (1-2 μl/ 500 μl culture mediim) either from separate drug solutions or for the construction of median effect plot (FIG. 1) from a pre-made mixture of both drugs (e.g. 0.75 μM DIME+2 nM vincristine) and simultaneous dilutions thereof (Chou et al. Eur. J. Biochem. 115: 207-216 (1981)). The cultures were incubated at 37° C. for 4 days and growth rates, leading to near confluency in drug-free controls, were monitored by cell counting in a haemocytometer after detachment by trypsin treatment Mendeleyev et al., International Journal of Oncology 10:689-695 (1997) and Zhen et al., International Journal of Oncology 10:689-695 (1997). Mathematical analysis of growth curves and median effects and isobolograms were carried out by published procedures (Chou et al. J. Theor. Biol. 65: 345-356 (1977), Chou et al. Eur. J. Biochem. 115: 207-216 (1981) and Chou et al. Adv. in Enzyme Regulation 22:27-55 (1984)) and error bars indicate SD=Σx^2 +L -(Σx)^2 /n where X is the numerical results with n=3-5.
# e. Colony formation was quantitated as reported by. Each colony of 50 cells is the outgrowth from one cell, plated 10 days before colony counting.
# [2] = test system: DIME-tolerant clones
# Method: DIME-tolerant clones DR6and DR 7 were isolated by incubation of cells in a mediim containing 1.5 μM DIME for 11 days. At that time surviving colonies were picked with the use of cloning rings and plated for growth in fresh mediim still containing 1.5 μM DIME. After two weeks of growth in the presence of drug the cells were aliquoted and frozen. For each experiment a vial of frozen cells was thawed, the cells were plated in the absence of drug, and incubated for 2-3 days in drug-free mediim.
# [3] = test system: malignant tumor growth; assay: Activity of DIME in vivo (general statement)
# [4] = test system: DIME-tolerant cells (DR6, DR7); assay: Cell growth of DIME-tolerant cells; format: cell-based, human
# Method: as §1, with “Mathematical analysis of growth curves and median effects and isobolograms were carried out by published procedures (Chou et al. J. Theor. Biol. 65: 345-356 (1977), Chou et al. Eur. J. Biochem. 115: 207-216 (1981) and Chou et al. Adv. in Enzyme Regulation 22:27-55 (1984)) and error bars indicate SD=Σx^2 +L -(Σx)^2 /n where X is the numerical results with n=3-5.” left out
# [5] = test system: MDA-MB-231 human mammary cancer cells; assay: Cell growth kinetics, median effect and isobologram; format: cell-based; conditions: 0.75 μM DIME (or DIPE) or 1-2 nM vincristine alone
# Method: as §1
# Kinetics of vincristine-DIME interactions: Interpretation of conventional isobolograms, consisting of plots of I50 values of two drugs alone and in combination is valid only if it is proven kinetically that both drugs bind at mutually exclusive sites.
# Isobologram analysis of the combined action of DIME and vincristine is illustrated in FIG. 2, and it is evident that the action of the two drugs in combination exceed an additive effect, which is depicted by a concave curve, contrasting with additive action, which would display a straight line connecting the I50 values for each drug alone (dotted line in FIG. 2). […]
# [6] = test system: biosynthetic pathways of DNA, RNA or proteins; assay: Metabolic action and biosynthetic pathways of DNA, RNA or proteins
# [7] = test system: tubulin α+β; assay: Inhibition of tubulin polymerization / assembly of microtubules; format: biochemical; conditions: FIG. 4b
# Method: The optical tests were performed as reported by Buki et al., International Journal of Oncology 10:911-913 (1997).
smiles,measurement,setting,value
"COC(=O)c1cc(I)c(Oc2ccc(OC)cc2)c(I)c1 [DIME, methyl 3,5-diiodo-4-(4'-methoxyphenoxy) benzoate]","Inhibition of colony formation, DIME versus DIPE",[1]; FIG. 4a,equivalency; also recorded: Equivalent effectivity
same,Reduction of colony formation in parent cell line (factor),"[1]; FIG. 8, parent (wild type) cell line",10^3
same,Drug permeation in DIME-tolerant cells,[2],significant decrease of drug permeation
same,Activity in vivo,[3],highly active
same,Doubling time of DIME-tolerant cells after removal of DIME,[4]; DIME removed,40 to 45 h
same,Doubling time of DIME-tolerant cells,"[4]; in the presence of 1.5 μM DIME, cancer cells 20 hrs",70 to 78 h
same,Growth rate with single drug,[5],do not elicit effects that exceed the SD of average cell growth rates; also recorded: fall within SD values
same,"Inhibition of biosynthetic pathways of DNA, RNA or proteins",[6],"nor does it inhibit the biosynthetic pathways of DNA, RNA or proteins"
same,Metabolic action,[6],no metabolic action
same,"Inhibition of assembly of microtubules, DIME versus DIPE",[7],equivalency; also recorded: Inhibitory effects
